The text below walks through data of US20150352108A1, “AMINO-PYRIMIDINE COMPOUNDS AS INHIBITORS OF TBK1 AND/OR IKK EPSILON” (Alzheimer's Institute of America, priority 2009, published 2015).

pIC50: −log10 of the molar value.

For one experiment, the target named is T1, TBK1 (Homo sapiens, UniProt Q9UHD2).
T1 construct: His-tag; made in house; host or cells: Sf9 insect cells
T1 sequence (Q9UHD2 1-729): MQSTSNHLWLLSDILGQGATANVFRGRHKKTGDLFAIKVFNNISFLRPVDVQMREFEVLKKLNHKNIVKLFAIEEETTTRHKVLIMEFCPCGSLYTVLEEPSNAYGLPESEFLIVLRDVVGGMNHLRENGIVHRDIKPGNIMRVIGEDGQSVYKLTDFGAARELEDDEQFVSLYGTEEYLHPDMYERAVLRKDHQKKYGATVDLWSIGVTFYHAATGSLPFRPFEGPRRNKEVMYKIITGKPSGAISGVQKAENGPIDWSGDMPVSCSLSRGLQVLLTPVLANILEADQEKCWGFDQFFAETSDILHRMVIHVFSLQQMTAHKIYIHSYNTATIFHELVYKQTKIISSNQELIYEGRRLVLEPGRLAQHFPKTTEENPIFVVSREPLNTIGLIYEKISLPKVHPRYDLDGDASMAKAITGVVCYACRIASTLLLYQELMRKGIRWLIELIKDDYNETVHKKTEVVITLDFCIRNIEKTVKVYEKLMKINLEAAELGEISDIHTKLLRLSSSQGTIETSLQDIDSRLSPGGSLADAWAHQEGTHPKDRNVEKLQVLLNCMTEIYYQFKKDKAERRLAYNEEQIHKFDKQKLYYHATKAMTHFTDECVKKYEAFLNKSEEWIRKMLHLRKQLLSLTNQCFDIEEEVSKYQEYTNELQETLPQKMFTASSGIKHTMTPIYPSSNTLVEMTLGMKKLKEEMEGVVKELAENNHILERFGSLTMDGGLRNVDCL
Put plainly: In-vitro TBK1 kinase assay ([γ33]ATP filter-plate). It is filed as biochemical. Particulars: text bins; read-out: IC50 for inhibition of the kinase activity of TBK1. Summed up:
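His-tagged IKKε and TBK1 from Sf9 cells were assayed with myelin basic protein or casein and [γ33]ATP at 2×Km ATP (32 μM for IKKε, 60 μM for TBK1). Enzyme was 0.1 or 0.015 μg/ml for IKKε and 0.1 or 0.02 μg/ml for TBK1 (normal/sensitized). Reactions ran 30-45 min, were filter-captured, scintillation-counted, and normalized to DMSO after background subtraction.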

In experiment [1] the test system is IP-10 production, human fibroblast-like synoviocytes (HFLS-RA). The experiment can be described thus: Inhibition of IP-10 production by HFLS-RA cells induced with Poly(I:C). It is filed as cell-based. Particulars: Poly(I:C) induction. Here is the method:
HFLS cells (HFLS-RA) isolated from patients with rheumatoid arthritis were obtained from Cell Applications, Inc. (San Diego, Calif.). Cells were seeded in synoviocyte growth medium (Cell Applications, Inc., San Diego, Calif.) and allowed to grow overnight. The following day, media was replaced and cells were treated with varying concentrations of selected compounds according to Formula I (e.g., Example Compound 5) (0.1% final DMSO concentration). Two hours later, cells were induced with 50 µg/mL Poly(I:C) (Sigma-Aldrich, St. Louis, Mo.). Supernatants were collected 20 hours post-induction and used to monitor RANTES and IP-10 levels using DuoSet ELISA kits (Human CXCL10/IP-10 DuoSet & Human CCL5/RANTES DuoSet; R&D Systems, Inc., Minneapolis, Minn.).

Experiment [2] deals with IFN-α2 mRNA, normal PBMCs. Put plainly: Agonist induced IFN-α2 mRNA in PBMCs from healthy donors (qRT-PCR). It is filed as cell-based, human. To be noted: LMW poly(I:C), serial dilutions. An excerpt: (§1) To determine if inhibition of IKKε and/or TBK1 modulates nucleic acid agonist induced gene expression, high molecular weight poly(I:C) (MDA5 agonist) and low weight poly(I:C) (RIG-I agonist) were electroporated into human peripheral blood mononuclear cells (PBMCs) obtained from normal donors, or low molecular weight Poly(I:C) was electroporated into PBMCs from donors that have Systemic Lupus Erythematosus (SLE). Induction of IFN-α2, IFN-β, and BLyS mRNA production was monitored by qRT-PCR.
(§2) Human PBMCs were collected from healthy donors using routine laboratory procedures. PBMCs from SLE patients were purchased from Astarte Biologics (Redmond, Wash.). The PBMCs were electroporated using Nucleofector® Kit V (Lonza, Walkersville, Md.) with 0.4 ug/mL of high molecular weight poly (I:C) (InvivoGen, San Diego, Calif.) or 0.4 ug/mL low molecular weight poly (I:C) (InvivoGen, San Diego, Calif.) and seeded into wells containing serial dilutions of Example Compound 5 (0.1% final DMSO concentration). […] RNA was quantitated using Quant-iT™ RiboGreen® RNA Assay Kit (Invitrogen, Carlsbad, Calif.). Reverse transcription and real-time PCR were performed using the QuantiTect Probe RT-PCR Kit (Qiagen, Germantown, Md.) and the 7300 Real-Time PCR System (Applied Biosytems, Foster City, Calif.). […]

In experiment [3] the test system is IFN-β1 mRNA, normal PBMCs. The experiment can be described thus: Agonist induced IFN-β1 mRNA in PBMCs from healthy donors (qRT-PCR). It is filed as cell-based, human. Particulars: LMW poly(I:C), serial dilutions.
Description: as §1, §2

Regarding `N#Cc1cc(-c2ccnc(Nc3ccc(N4CCOCC4)cc3)n2)ccc1OC1CCOCC1` [Example 5, 5-(2-{[4-(Morpholin-4-yl)phenyl]amino}pyrimidin-4-yl)-2-(tetrahydro-2H-pyran-4-yloxy)benzaonitrile], the pIC50 is greater than 8.00 at TBK1 and roughly 7.22 in experiment [1]. Besides, in experiment [2], the “induction of IFN-α2 mRNA” value is listed as “potently inhibited”. In experiment [3], the “induction of IFN-β1 mRNA” value was “potently inhibited”.
